Measured values published in US20080076050A1, “P-Terphenyl Compound And Photosensitve Body For Electrophotography Using Such Compound” (Hodogaya Chemical Co., Ltd., priority 2004, published 2008).

Assays:
[1] = Solubility in organic solvents; format: physicochemical; settings: 25° C., amount of solute (g) based on 100 ml of solvent
Procedure: The solubility of Synthesis Examples 1 to 3 and Synthesis Comparative Example 1 in organic solvents (1,2-dichloroethane, toluene and tetrahydrofuran) at 25° C. was measured. The solubility was indicated by the amount of solute (g) based on 100 ml of solvent.

[2] = Dissolving the charge transporting agent in dichloroethane solution of polycarbonate resin for the charge transporting layer; format: physicochemical; settings: 8.0% dichloroethane solution of polycarbonate resin (Iupilon Z)
Procedure: On the other hand, 1.5 parts of the p-terphenyl compound (compound No. 1) synthesized in Synthesis Example 1 was added as a charge transporting agent to 18.75 parts of a 8.0% dichloroethane solution of a polycarbonate resin (Iupilon Z, manufactured by Mitsubishi Engineering-Plastics Corporation), followed by application of an ultrasonic wave to completely dissolve the p-terphenyl compound. This solution was applied onto the above-mentioned charge generating layer with a wire bar, and dried at 110° C. under normal pressure for 30 minutes to form a charge transporting layer having a film thickness of 20 μm, thus preparing photoconductor No. 1.
Photoconductor No. 7 was prepared in the same manner as in Photoconductor Example 1 with the exception that the charge transporting agent used in Photoconductor Example 1 was changed to the same amount of the p-terphenyl compound (comparative compound No. 1) synthesized in Synthesis Comparative Example 1.
On the other hand, 0.9 part of the p-terphenyl compound (compound No. 1) synthesized in Synthesis Example 1 was added as a charge transporting agent to 11.25 parts of a 8.0% dichloroethane solution of a polycarbonate resin (Iupilon Z, manufactured by Mitsubishi Engineering-Plastics Corporation), followed by application of an ultrasonic wave to completely dissolve the p-terphenyl compound. […]

Structure (SMILES) | Solubility in 1,2-Dichloroethane [1] | Solubility in Tetrahydrofuran [1] | Solubility in Toluene [1] | Solubility of charge transporting agent when preparing the photoconductor [2] | melting point
Cc1ccc(N(c2ccc(C)cc2)c2ccc(-c3ccc(-c4ccc(N(c5ccc(C)cc5)c5ccc(C)cc5)cc4)cc3)cc2)cc1 [Comparative Compound 1, N,N,N′,N′-tetra-p-tolyl-4,4″-diamino-p-terphenyl] | 2.3 g/100 ml | 12.4 g/100 ml | 2.2 g/100 ml | insoluble | 232.5 to 233.5 °C
Cc1ccc(N(c2ccc(-c3ccc(-c4ccc(N(c5ccc(C)cc5)c5ccc6c(c5)CCC6)cc4)cc3)cc2)c2ccc3c(c2)CCC3)cc1 [Compound No. 1, N,N′-bisindane-5-yl-N,N′-di-p-tolyl-4,4″-diamino-p-terphenyl] | 4.2 g/100 ml | 20.8 g/100 ml | 11.0 g/100 ml | – | 207.4 to 208.1 °C
COc1ccc(N(c2ccccc2)c2ccc(-c3ccc(-c4ccc(N(c5ccccc5)c5ccc(OC)cc5C)cc4)cc3)cc2)c(C)c1 [Compound No. 2, N,N′-di(4-methoxy-2-methylphenyl)-N,N′-diphenyl-4,4″-diamino-p-terphenyl] | 3.5 g/100 ml | 18.1 g/100 ml | 9.3 g/100 ml | – | 180.8 to 183.4 °C
COc1ccc(N(c2ccc(-c3ccccc3)cc2)c2ccc(-c3ccc(-c4ccc(N(c5ccc(-c6ccccc6)cc5)c5ccc(OC)cc5C)cc4)cc3)cc2)c(C)c1 [Compound No. 3, N,N′-bis-biphenyl-4-yl-N,N′-di-4-methoxy-2-methylphenyl-4,4″-diamino-p-terphenyl] | 30.0 or more g/100 ml | 30.0 or more g/100 ml | 30.0 or more g/100 ml | – | 232.6 to 233.2 °C
Cc1ccc(N(c2ccccc2)c2ccc(-c3ccc(-c4ccc(N(c5ccccc5)c5ccc(C)cc5)cc4)cc3)cc2)cc1 [Compound No. 17, N,N′-diphenyl-N,N′-di-p-tolyl-4,4″-diamino-p-terphenyl] | – | – | – | – | 167.2 to 168.2 °C
